Source: patent US20170038387A1, “METHODS FOR TREATING CHRONIC LYMPHOCYTIC LEUKEMIA AND THE USE OF BIOMARKERS AS A PREDICTOR OF CLINICAL SENSITIVITY TO IMMUNOMODULATORY THERAPIES” (Celgene Corporation, priority 2015, published 2017)

System: primary CLL samples
Experiment: TMT-tagging and mass-spectrometry profiling of relative protein abundance after compound exposure
Assay type: cell-based, human
Description: Data import: Relative abundance (RA) data was imported into the R statistical programming environment v.3.1.2. Proteins with less than one spectral count in any of the three MS runs for each case scenario were filtered out and relative abundance was scale normalized to the same median by using normalizeBetweenArrays( ) function implemented in the limma package for Bioconductor (see Yang et al., Nucleic Acids Research, 30(4), e15 (2002)).
Comparative analysis: RA scores were log 2-transformed to perform direct comparison of compounds exposure versus DMSO control and a paired moderated t-test (see Smyth, Statistical Applications in Genetics and Molecular Biology, 3(1), article 3 (2004)) was performed by using lmfit( ) and eBayes( ) functions form limma package to test differential relative abundance between experimental conditions. For differential analysis across cases, the log-2 fold changes of replicates for two of the case scenarios were considered.
Linear regression analysis: Linear regression was modeled by using lm( ) function from the stats package. This function provided the correlation coefficients as well as the linear fitted model. Data were assessed for outliers detection within the linear model via the Studentized residuals method (implemented in outlierTest( ) function from car package) and deemed significant if their q-values were under a threshold of 0.05 (5%).
The proteins subjected to the analysis were those with more than one spectral count matched in three MS runs representing each case scenario. A total of 6114, 6070, 5982 and 5382 proteins were retained for each case scenario. Differential expression analysis was applied to the high and consistent coverage of 4594 proteins quantified across all case scenarios. FIGS. 2A-2D show distribution of normalized relative abundances for each replicate of the four case scenarios (Cases B1-B4). The standard deviation of each replicate is represented as a stair-plot line at the bottom of the boxplot. FIGS. 3A-3D show heatmaps representing correlations of log 2 fold-changes of protein levels post compound treatment as compared with DMSO across conditions for all case scenarios. Low correlation of log 2 fold-changes at 6 hours may be due to the alteration of a small subset of proteins at an early time point without strong general effects across the proteome. Stronger correlations at 24 hours can be linked to a higher proportion of proteins perturbed reflecting downstream changes upon compound exposure.

[1] = Cmp A vs. len, Case B1, 10 μM, 24 hours

Cc1nc2cccc(N)c2c(=O)n1C1CCC(=O)NC1=O (stereo not drawn) [Compound A, 3-(5-amino-2-methyl-4-oxo-4H-quinazolin-3-yl)-piperidine-2,6-dione]
protein abundance levels of SELL, SNX20 and KLF13 upon exposure (10 μM, 24 hours): down-regulated | level of WIZ (widely-interspaced zinc-finger) upon exposure (Case B1): decreased | RA upon Cmp A vs. len Treatment, IKZF1 (Q13422) (Case B1, 10 μM, 24 hours): Lower | RA upon Cmp A vs. len treatment, BCL2L1 (Q07817) (Case B1, 10 μM, 24 hours): Higher | RA upon Cmp A vs. len treatment, GZMB (P10144) (Case B1, 10 μM, 24 hours): Lower | RA upon Cmp A vs. len treatment, IGHM (P01871-2) (Case B1, 10 μM, 24 hours): Lower | RA upon Cmp A vs. len treatment, IKZF1 (Q13422-2) (Case B1, 10 μM, 24 hours): Lower | RA upon Cmp A vs. len treatment, IRF8 (Q02556) (Case B1, 10 μM, 24 hours): Lower | RA upon Cmp A vs. len treatment, KLF13 (Q9Y2Y9) (Case B1, 10 μM, 24 hours): Lower | RA upon Cmp A vs. len treatment, LGALS9 (O00182) (Case B1, 10 μM, 24 hours): Lower | RA upon Cmp A vs. len treatment, MARCKS (P29966) (Case B1, 10 μM, 24 hours): Higher | RA upon Cmp A vs. len treatment, NDE1 (Q9NXR1) (Case B1, 10 μM, 24 hours): Higher | RA upon Cmp A vs. len treatment, NFKBIE (O00221) (Case B1, 10 μM, 24 hours): Lower | RA upon Cmp A vs. len treatment, PTK2B (Q14289-2) (Case B1, 10 μM, 24 hours): Higher | RA upon Cmp A vs. len treatment, SAMSN1 (Q9NSI8) (Case B1, 10 μM, 24 hours): Higher | RA upon Cmp A vs. len treatment, SELL (P14151-2) (Case B1, 10 μM, 24 hours): Lower | RA upon Cmp A vs. len treatment, SLAMF1 (Q13291) (Case B1, 10 μM, 24 hours): Higher | RA upon Cmp A vs. len treatment, SNX20 (Q7Z614) (Case B1, 10 μM, 24 hours): Lower | RA upon Cmp A vs. len treatment, SOD2 (P04179) (Case B1, 10 μM, 24 hours): Higher | RA upon Cmp A vs. len treatment, TCF7 (P36402-3) (Case B1, 10 μM, 24 hours): Lower | RA upon Cmp A vs. len treatment, TRAF1 (Q13077) (Case B1, 10 μM, 24 hours): Higher | RA upon Cmp A vs. len treatment, WIZ (M0QXA7) (Case B1, 10 μM, 24 hours): Lower | RA upon Cmp A vs. len treatment, ZBTB10 (Q96DT7) (Case B1, 10 μM, 24 hours): Higher | RA upon Cmp A vs. len Treatment, IKZF1 (Q13422) (Case B2, 10 μM, 24 hours): Lower | RA upon Cmp A vs. len Treatment, IKZF3 (Q9UKT9) (Case B2, 10 μM, 24 hours): Lower | abundance levels of GBP2 and GBP4 upon exposure (Case B3): increased abundance levels | RA upon Cmp A vs. len Treatment, CD40 (P25942) (Case B3, 10 μM, 24 hours): Higher | RA upon Cmp A vs. len Treatment, CR2 (P20023-3) (Case B3, 10 μM, 24 hours): Higher | RA upon Cmp A vs. len Treatment, CTSS (P25774) (Case B3, 10 μM, 24 hours): Higher | RA upon Cmp A vs. len Treatment, GBP1 (P32455) (Case B3, 10 μM, 24 hours): Higher | RA upon Cmp A vs. len Treatment, IKZF1 (Q13422) (Case B3, 10 μM, 24 hours): Lower | RA upon Cmp A vs. len Treatment, IKZF3 (Q9UKT9) (Case B3, 10 μM, 24 hours): Lower | RA upon Cmp A vs. len Treatment, ISG20 (Q96AZ6) (Case B3, 10 μM, 24 hours): Higher | RA upon Cmp A vs. len Treatment, SASH1 (O94885) (Case B3, 10 μM, 24 hours): Higher | RA upon Cmp A vs. len Treatment, SEMA7A (O75326) (Case B3, 10 μM, 24 hours): Higher | RA upon Cmp A vs. len treatment, PTK2B (Q14289-2) (Case B3, 10 μM, 24 hours): Higher | RA upon Cmp A vs. len treatment, SAMSN1 (Q9NSI8) (Case B3, 10 μM, 24 hours): Higher | RA upon Cmp A vs. len treatment, SELL (P14151-2) (Case B3, 10 μM, 24 hours): Lower | RA upon Cmp A vs. len treatment, SLAMF1 (Q13291) (Case B3, 10 μM, 24 hours): Higher | RA upon Cmp A vs. len treatment, SOD2 (P04179) (Case B3, 10 μM, 24 hours): Higher | RA upon Cmp A vs. len treatment, TRAF1 (Q13077) (Case B3, 10 μM, 24 hours): Higher | IRF5 protein level (Case B4 (not quantified in B2)): exclusively decreased | RA upon Cmp A vs. len Treatment, PDE6D (O43924) (Case B4, 10 μM, 24 hours): Lower | logFC BCL2L1 (Q07817) [1]: 0.5326 | logFC GZMB (P10144) [1]: −1.175 | logFC IGHM (P01871-2) [1]: −0.6625 | logFC IKZF1 (Q13422) [1]: −1.709 | logFC IKZF1 (Q13422-2) [1]: −2.169
